From PMC4890124, “Antimicrobial activity, improved cell selectivity and mode of action of short PMAP-36-derived peptides against bacteria and Candida” (Scientific Reports, 2016)
Converted amounts (≈) assume the structure as drawn. Peptide text beside a SMILES is read from it.

Assays:
[1] = test system: Bacillus subtilis CMCC 63501; assay type: cell-based; conditions: CMCC 63501, 18 h
Procedure: (§1) The peptide antibacterial activity was determined against both gram-positive and gram-negative bacteria strains, including Escherichia coli ATCC 25922, Escherichia coli UB1005, Salmonella enterica serovar typhimurium C77-31, Staphylococcus aureus ATCC 29213, Staphylococcus aureus ATCC 25923, Bacillus subtilis CMCC 63501, and Staphylococcus epidermidis ATCC 12228. Clinically isolated Escherichia coli EC183 was provided by the 4th Affiliated Hospital of Harbin Medical University. MIC of the peptides was measured using a modified version of the National Committee for Clinical Laboratory Standards (NCCLS) broth microdilution method as described previously. The bacterial strains were inoculated and grown to mid-log phase in fresh Mueller-Hinton broth (MHB) at 37 °C. Bacterial inoculum suspensions were prepared at a final concentration of approximately 1 × 10^5 CFU/ml. Peptides were 2-fold serially diluted to make different concentrations, from 0.5 to 256 μM. Equal volumes of inoculum suspensions were then added to each well of a sterile 96-well plate with different concentrations of peptides, and the plate was incubated for 18 h at 37 °C. Broth with or without bacteria was employed as the positive control or the negative control, respectively. MIC was defined as the lowest concentration of peptides that prevented visible turbidity by visual inspection. […] After overnight incubation at 37 °C, MBC was defined as the lowest concentration of peptides that killed at least 99.9% of the initial inoculums. Experiments were performed in triplicate with three biological replicates.

[2] = test system: Clinically isolated Escherichia coli EC183; assay type: cell-based; conditions: Clinically isolated EC183, 18 h
Procedure: as §1

[3] = test system: Escherichia coli ATCC 25922; assay type: cell-based; conditions: ATCC 25922, 18 h
Procedure: as §1

Escherichia coli UB1005 = assay type: cell-based; conditions: UB1005, 18 h
Procedure: as §1

[4] = test system: Salmonella enterica serovar typhimurium C77-31; assay type: cell-based; conditions: three independent experiments
Procedure: as §1

[5] = test system: Staphylococcus aureus ATCC 25923; assay type: cell-based; conditions: ATCC 25923, 18 h
Procedure: as §1

[6] = test system: Staphylococcus aureus ATCC 29213; assay type: cell-based; conditions: ATCC 29213, 18 h
Procedure: as §1

[7] = test system: Staphylococcus epidermidis ATCC 12228; assay type: cell-based; conditions: ATCC 12228, 18 h
Procedure: as §1

[8] = test system: Candida albicans CGMCC 2.2086; assay: microbe, parasite or virus in culture; assay type: cell-based; conditions: CGMCC 2.2086, 48 h
Description: (§2) The antifungal activities were monitored in RPMI-1640 broth medium by a 2-fold microdilution assay according to the Clinical and Laboratory Standards Institute (CLSI) methods. The Candida albicans CGMCC 2.2086, Candida tropicalis CGMCC 2.1975, and Candida krusei CGMCC 2.1857 fungal strains were purchased from the China General Microbiological Culture Collection Center (CGMCC, Beijing, China). Clinically isolated Candida albicans CA2761 was provided by the 4th Affiliated Hospital of Harbin Medical University. Briefly, fungal strains were cultured on YPD agar plates (1% peptone, 0.5% yeast extract, 1% glucose and 2% agar) at 28 °C to prepare Candida suspensions with a turbidity of a 0.5 McFarland standard. A total of 50 μl inoculum cell suspension diluted in RPMI-1640 broth medium was added to an equal volume of peptide solution to achieve a final peptide concentrations ranging from 0.25 μM to 128 μM in a 96-well plate. Pure broth alone or with inoculum suspensions was used as the negative control or the positive control, respectively. The plate was incubated at 28 °C for 48 h. MIC was considered the lowest concentration at which no fungal growth was visually observed under experimental conditions. […] After 48 h incubation at 28 °C, MFC was defined as the lowest concentration of peptides that killed at least 99.9% of the initial inoculums. Experiments were performed in triplicate with three biological replicates.

[9] = test system: Candida krusei CGMCC 2.1857; assay: microbe, parasite or virus in culture; assay type: cell-based; conditions: CGMCC 2.1857, 48 h
Description: as §2

[10] = test system: Candida tropicalis CGMCC 2.1975; assay: microbe, parasite or virus in culture; assay type: cell-based; conditions: CGMCC 2.1975, 48 h
Description: as §2

[11] = test system: C. albicans CA276 (clinical isolate); assay: microbe, parasite or virus in culture; assay type: cell-based, Candida albicans; conditions: CA276 (clinical isolate, 48 h)
Description: as §2

CC[C@H](C)[C@H](NC(=O)[C@H](Cc1c[nH]c2ccccc12)NC(=O)[C@H](CCCCN)NC(=O)[C@H](CC(C)C)NC(=O)[C@@H](NC(=O)[C@H](CCCCN)NC(=O)CNC(=O)[C@@H](NC(=O)[C@H](CCCCN)NC(=O)[C@H](CCCCN)NC(=O)[C@H](CC(C)C)NC(=O)[C@H](CCCNC(=N)N)NC(=O)[C@H](CCCCN)NC(=O)[C@H](CCCNC(=N)N)NC(=O)[C@@H](NC(=O)[C@H](CCCCN)NC(=O)[C@H](CCCCN)NC(=O)[C@H](CCCNC(=N)N)NC(=O)[C@H](CC(C)C)NC(=O)[C@H](CCCNC(=N)N)NC(=O)[C@@H](N)CCCNC(=N)N)[C@@H](C)O)[C@@H](C)CC)C(C)C)C(N)=O [RI21] (H-RRLRKKTRKRLKKIGKVLKWI-NH2) was tested, and the “MBC B. subtilis 63501” value [1] was 4 µM (≈ 10.8 µg/mL), the “MIC B. subtilis 63501” value [1] was 1 µM (≈ 2.7 µg/mL) and the “MBC E. coli EC183” value [2] was 2 µM (≈ 5.41 µg/mL). The “MIC E. coli EC183” value [2] was 1 µM (≈ 2.7 µg/mL), the “MBC E. coli 25922” value [3] was 8 µM (≈ 21.6 µg/mL) and the “MIC E. coli 25922” value [3] was 2 µM (≈ 5.41 µg/mL). The MBC E. coli 1005 (Escherichia coli UB1005) was 2 µM (≈ 5.41 µg/mL), the MIC E. coli 1005 (Escherichia coli UB1005) was 2 µM (≈ 5.41 µg/mL) and the “MIC S. typhi C77-31” value ([4]; broth microdilution, MHB, ~1 × 10^5 CFU/ml, 18 h at 37 °C, visual) was 1 µM (≈ 2.7 µg/mL). The “MBC S. typhi C77-31” value ([4]; lowest concentration killing at least 99.9% of initial inoculum) was 2 µM (≈ 5.41 µg/mL), the MBC S. aureus 25923 [5] was 4 µM (≈ 10.8 µg/mL) and the MIC S. aureus 25923 [5] was 4 µM (≈ 10.8 µg/mL). The MBC S. aureus 29213 [6] was 4 µM (≈ 10.8 µg/mL), the MIC S. aureus 29213 [6] was 4 µM (≈ 10.8 µg/mL) and the “MBC S. epidermidis 12228” value [7] was 8 µM (≈ 21.6 µg/mL). The “MIC S. epidermidis 12228” value [7] was 4 µM (≈ 10.8 µg/mL), the MFC ([8]; read-out: MFC C. albicans 2.2086) was 16 µM (≈ 43.3 µg/mL) and the MIC ([8]; read-out: MIC C. albicans 2.2086) was 8 µM (≈ 21.6 µg/mL). For the same compound, the MFC ([9]; read-out: MFC C. krusei 2.1857) was 4 µM (≈ 10.8 µg/mL), the MIC ([9]; read-out: MIC C. krusei 2.1857) was 2 µM (≈ 5.41 µg/mL) and the MFC ([10]; read-out: MFC C. tropicalis 2.1975) was 2 µM (≈ 5.41 µg/mL). It also gave an MIC ([10]; read-out: MIC C. tropicalis 2.1975) of 1 µM (≈ 2.7 µg/mL), an MFC [11] of 32 µM (≈ 86.5 µg/mL) and an MIC [11] of 8 µM (≈ 21.6 µg/mL).
